Test results as given in patent US20180249707A1, “METHOD OF CONTROLLING ALGAE IN A BODY OF WATER” (priority 2013, published 2018).

Assays:
Microcystis aeruginosa = assay: 14-day flask exposure of Microcystis aeruginosa to BADA; assay type: cell-based
Description: (§1) The experiment was conducted for 14 days and was initiated using 100 mL BG-11 medium contained in 200 mL flasks. […] The experiment was initiated by exposing the algae to 0.2, 0.4, 0.8, 1.0, 1.2, 1.4, 1.8, and 2.0 ppm (mg/L) as BADA, 0.5 Cu/L Cutrine®-Plus. The solution was heated in a water bath and diluted to 70 mg/L using warmed deionized water. Cutrine®-Plus stock solution was made at 50 mg/L using deionized water. Three replicates of each exposure concentration, along with three replicates of an untreated reference were tested. Each sample was maintained at room temperature with 12-hours of light and 12-h dark photoperiod. The chlorophyll a concentrations of Microcystis aeruginosa through the 14 day exposure after exposure to concentrations of BADA and Cutrine®-Plus. The results are shown in TABLES 5, and 6, which show the chlorophyll a concentration and the cell density, respectively.

M. aeruginosa = assay: Repeat exposure of M. aeruginosa to BADA at 25-200 ppb; assay type: cell-based
Description: as §1
Example 5 was repeated but using the N,N-bis-(3-aminopropyl) dodecylamine in the amounts of 200 parts per billion ((ppb) 0.2 ppm), 100 parts per billion ((ppb) 0.1 ppm), 75 parts per billion ((ppb) 0.075 ppm), 50 parts per billion ((ppb) 0.05 ppm), and 25 parts per billion ((ppb) 0.025 ppm). A control example was also repeated since the M. aeruginosa was from a different culture and the test were conducted at different times. The results are shown in TABLES 8, and 9, which show the chlorophyll a concentration and the cell density, respectively.

CCCCCCCCCCCCN(CCCN)CCCN [BADA, N,N-bis-(3-aminopropyl) dodecylamine]
In vivo chlorophyll a concentrations of M. aeruginosa cultures (Microcystis aeruginosa; BADA 1.4 ppm, day 7): 0.04 µg/L | Cell density of M. aeruginosa cultures (Microcystis aeruginosa; BADA 1.4 ppm, day 14): <1E+04 cells/mL | In vivo chlorophyll a concentrations of M. aeruginosa cultures (Microcystis aeruginosa; BADA 1.4 ppm, day 14): 0.01 µg/L | Cell density of M. aeruginosa cultures (Microcystis aeruginosa; BADA 1.8 ppm, day 0 (initial)): 5.7E+05 cells/mL | In vivo chlorophyll a concentrations of M. aeruginosa cultures (Microcystis aeruginosa; BADA 1.8 ppm, day 0 (initial)): 0.90 µg/L | In vivo chlorophyll a concentrations of M. aeruginosa cultures (Microcystis aeruginosa; BADA 1.8 ppm, day 3): 0.32 µg/L | Cell density of M. aeruginosa cultures (Microcystis aeruginosa; BADA 1.8 ppm, day 7): <1E+04 cells/mL | In vivo chlorophyll a concentrations of M. aeruginosa cultures (Microcystis aeruginosa; BADA 1.8 ppm, day 7): 0.03 µg/L | Cell density of M. aeruginosa cultures (Microcystis aeruginosa; BADA 1.8 ppm, day 14): <1E+04 cells/mL | In vivo chlorophyll a concentrations of M. aeruginosa cultures (Microcystis aeruginosa; BADA 1.8 ppm, day 14): 0.02 µg/L | Cell density of M. aeruginosa cultures (Microcystis aeruginosa; BADA 2.0 ppm, day 0 (initial)): 5.7E+05 cells/mL | In vivo chlorophyll a concentrations of M. aeruginosa cultures (Microcystis aeruginosa; BADA 2.0 ppm, day 0 (initial)): 0.90 µg/L | In vivo chlorophyll a concentrations of M. aeruginosa cultures (Microcystis aeruginosa; BADA 2.0 ppm, day 3): 0.40 µg/L | Cell density of M. aeruginosa cultures (Microcystis aeruginosa; BADA 2.0 ppm, day 7): <1E+04 cells/mL | In vivo chlorophyll a concentrations of M. aeruginosa cultures (Microcystis aeruginosa; BADA 2.0 ppm, day 7): 0.03 µg/L | Cell density of M. aeruginosa cultures (Microcystis aeruginosa; BADA 2.0 ppm, day 14): <1E+04 cells/mL | In vivo chlorophyll a concentrations of M. aeruginosa cultures (Microcystis aeruginosa; BADA 2.0 ppm, day 14): 0.01 µg/L | effectiveness as an algaecide on Microcystis aeruginosa (Microcystis aeruginosa; at concentrations comparable to Cutrine-Plus): effective | Cell density of M. aeruginosa cultures (M. aeruginosa; BADA 25 ppb, day 0 (initial)): 3.8E+05 cells/mL | In vivo chlorophyll a concentrations of M. aeruginosa cultures (M. aeruginosa; BADA 25 ppb, day 0 (initial)): 1.20 µg/L | In vivo chlorophyll a concentrations of M. aeruginosa cultures (M. aeruginosa; BADA 25 ppb, day 1): 0.67 µg/L | In vivo chlorophyll a concentrations of M. aeruginosa cultures (M. aeruginosa; BADA 25 ppb, day 5): 0.64 µg/L | In vivo chlorophyll a concentrations of M. aeruginosa cultures (M. aeruginosa; BADA 25 ppb, day 7): 1.58 µg/L | In vivo chlorophyll a concentrations of M. aeruginosa cultures (M. aeruginosa; BADA 25 ppb, day 12): 7.91 µg/L | Cell density of M. aeruginosa cultures (M. aeruginosa; BADA 25 ppb, day 14): 7.3E+06 cells/mL | In vivo chlorophyll a concentrations of M. aeruginosa cultures (M. aeruginosa; BADA 25 ppb, day 14): 10.06 µg/L | Cell density of M. aeruginosa cultures (M. aeruginosa; BADA 50 ppb, day 0 (initial)): 3.8E+05 cells/mL | In vivo chlorophyll a concentrations of M. aeruginosa cultures (M. aeruginosa; BADA 50 ppb, day 0 (initial)): 1.20 µg/L | In vivo chlorophyll a concentrations of M. aeruginosa cultures (M. aeruginosa; BADA 50 ppb, day 1): 0.48 µg/L | In vivo chlorophyll a concentrations of M. aeruginosa cultures (M. aeruginosa; BADA 50 ppb, day 5): 0.04 µg/L | In vivo chlorophyll a concentrations of M. aeruginosa cultures (M. aeruginosa; BADA 50 ppb, day 7): 0.06 µg/L | In vivo chlorophyll a concentrations of M. aeruginosa cultures (M. aeruginosa; BADA 50 ppb, day 12): 0.71 µg/L | Cell density of M. aeruginosa cultures (M. aeruginosa; BADA 50 ppb, day 14): 1.5E+06 cells/mL | In vivo chlorophyll a concentrations of M. aeruginosa cultures (M. aeruginosa; BADA 50 ppb, day 14): 1.93 µg/L | Cell density of M. aeruginosa cultures (M. aeruginosa; BADA 75 ppb, day 0 (initial)): 3.8E+05 cells/mL | In vivo chlorophyll a concentrations of M. aeruginosa cultures (M. aeruginosa; BADA 75 ppb, day 0 (initial)): 1.20 µg/L | In vivo chlorophyll a concentrations of M. aeruginosa cultures (M. aeruginosa; BADA 75 ppb, day 1): 0.50 µg/L | In vivo chlorophyll a concentrations of M. aeruginosa cultures (M. aeruginosa; BADA 75 ppb, day 5): 0.05 µg/L | In vivo chlorophyll a concentrations of M. aeruginosa cultures (M. aeruginosa; BADA 75 ppb, day 7): 0.05 µg/L | In vivo chlorophyll a concentrations of M. aeruginosa cultures (M. aeruginosa; BADA 75 ppb, day 12): 0.60 µg/L | Cell density of M. aeruginosa cultures (M. aeruginosa; BADA 75 ppb, day 14): 1.4E+06 cells/mL | In vivo chlorophyll a concentrations of M. aeruginosa cultures (M. aeruginosa; BADA 75 ppb, day 14): 1.77 µg/L | Cell density of M. aeruginosa cultures (M. aeruginosa; BADA 100 ppb, day 0 (initial)): 3.8E+05 cells/mL | In vivo chlorophyll a concentrations of M. aeruginosa cultures (M. aeruginosa; BADA 100 ppb, day 0 (initial)): 1.20 µg/L | In vivo chlorophyll a concentrations of M. aeruginosa cultures (M. aeruginosa; BADA 100 ppb, day 1): 0.55 µg/L | In vivo chlorophyll a concentrations of M. aeruginosa cultures (M. aeruginosa; BADA 100 ppb, day 5): 0.03 µg/L | In vivo chlorophyll a concentrations of M. aeruginosa cultures (M. aeruginosa; BADA 100 ppb, day 7): 0.03 µg/L | In vivo chlorophyll a concentrations of M. aeruginosa cultures (M. aeruginosa; BADA 100 ppb, day 12): 0.31 µg/L | Cell density of M. aeruginosa cultures (M. aeruginosa; BADA 100 ppb, day 14): 8.7E+05 cells/mL | In vivo chlorophyll a concentrations of M. aeruginosa cultures (M. aeruginosa; BADA 100 ppb, day 14): 0.98 µg/L | Cell density of M. aeruginosa cultures (M. aeruginosa; BADA 200 ppb, day 0 (initial)): 3.8E+05 cells/mL | In vivo chlorophyll a concentrations of M. aeruginosa cultures (M. aeruginosa; BADA 200 ppb, day 0 (initial)): 1.20 µg/L | In vivo chlorophyll a concentrations of M. aeruginosa cultures (M. aeruginosa; BADA 200 ppb, day 1): 0.50 µg/L | In vivo chlorophyll a concentrations of M. aeruginosa cultures (M. aeruginosa; BADA 200 ppb, day 5): 0.03 µg/L | In vivo chlorophyll a concentrations of M. aeruginosa cultures (M. aeruginosa; BADA 200 ppb, day 7): 0.02 µg/L | In vivo chlorophyll a concentrations of M. aeruginosa cultures (M. aeruginosa; BADA 200 ppb, day 12): 0.05 µg/L | Cell density of M. aeruginosa cultures (M. aeruginosa; BADA 200 ppb, day 14): 1.4E+05 cells/mL | In vivo chlorophyll a concentrations of M. aeruginosa cultures (M. aeruginosa; BADA 200 ppb, day 14): 0.16 µg/L
